In US5696276A, “Process for preparing 5,8-dihydroxynaphthoquinone derivatives, novel 5,8-dihydroxynaphthoquinone derivatives and their use as anticancer agent” (Kuhnil Pharmaceutical Co., Ltd., priority 1993, dated 1997):
Converted amounts (≈) assume the structure as drawn. Where two headings read alike, the source gives them in different places.

Tests used:
A549 cancer cells = assay: Cytotoxic activity against A549 cancer cells (sulforhodamin B method); assay type: cell-based; settings: Homo sapiens, read-out: ED50, cytotoxic activity against A549
Procedure, shortened: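 Cells seeded at 8×10^4 per well, attached 24 h, then exposed 48 h to six log-spaced concentrations in triplicate. TCA-fixed, SRB-stained, OD read at 520 nm; growth inhibition computed relative to time-zero and untreated counts, IC50 from regression.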

S-180 sarcoma cells = assay: Animal experiment using Sarcoma S-180 cells (survival of mouse); assay type: in vivo, male ICR mouse; settings: for responders at 15 µmol/kg / response vs control in vivo at 15 µmol/kg: daily dose 15 μmole (mg/kg/day given per compound)
Procedure, shortened: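 Male ICR mice (20 to 25 g) received intraperitoneal transplants of 0.1 ml S-180 cell suspension (10^7 cells/ml), prepared from ascites by washing in cold physiological saline. After 24 hours, groups of 8 to 9 mice received 7 to 8 ip injections of sample in dimethylsulfoxide diluted with saline. Controls got 2% dimethylsulfoxide-saline. Survival (T/C, %) was scored against control death.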

HL-60 cells = assay: Cytotoxic activity against HL-60 cells; assay type: cell-based; settings: Homo sapiens, read-out: ED50, cytotoxic activity against HL-60
Protocol: As in the test for the cytotoxic activity against L1210 cells, the test samples were dissoved in ethanol or dimethylsulfoxide in a certain concentration. 0.1 ml of the sample solution was mixed with 0.9 ml of a fresh medium to prepare the dilutions. To each two test tubes having a screw cap were added 100, 50, 25 μl, respectively, of the sample dilutions by means of a micropipet. To each test tube for the test group and the control group (2√n: n=number of the samples) was added 5 ml of the dilutions of HL-60 cells and K-562 cells which were cultured and activated before 24 hours from the beginning of experiment and then diluted in a concentration of 1×10^5 cells/mi. All test tubes were cultured for 48 hours in a CO2 incubator at 37° C. and then the number of cells was counted using a haemacytometer.
The ED50 value is defined as a concentration (μg/ml) of the sample which inhibits the growth of cancer cells by 50% of the control group and determined according to a method described in NIC's mannual (NIC=National Cancer Institue, U.S.A.). The growth rate Y(%) of cells in the presence of the test sample in each concentration was calculated according to the followign equation: […]
In the above equation, T means the average cell number per ml in the test group after incubation for 48 hours in the presence of the test samples in each concentration, C means the average cell number per ml in the control group after incubation for 48 hours, and Co means the average cell number per ml in the control group at the beginning of incubation. The Y(%) value at each concentration and log10 value of each concentration were obtained and the regression curve was constructed according to the following equation from those obtained values. In this case, when all the Y(%) value obtained at each concentration is greater than 55% or lower than 45%, the experiment was repeatedly conducted.
To construct the regression curve Y=A+BX the values A and B were obtained using the following equation. [formula]
In the above, the value N is the number of selected points which is greater than 2 and lower than, or identical with, the number of cencentration of the test sample, Xi is log(concentration) i, and Yi is the growth ratio at (concentration)i. The value of ED50 was obtained for those obtained slope and intercept.

L1210 cells = assay: Cytotoxic activity against L1210 cells; assay type: cell-based; settings: Mus musculus, read-out: ED50, cytotoxic activity against L1210
Procedure, shortened: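 Log-phase L1210 cells (5×10^4 cells/ml) in Fisher medium exposed 48 h at 37 °C in CO2 to three dilutions of sample dissolved in ethanol or DMSO. Cells counted by haemacytometer; growth relative to control; ED50 (μg/ml) from linear regression of growth % on log concentration.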

[1] = A549 cells, SRB method, 48 hours
[2] = ip, 1200 h, S-180 ICR mouse, intraperitoneal, daily dose 10 μmole (mg/kg/day given per compound), 7 to 8 injections, read-out: Number of mouse survived for 50 days (converted)
[3] = ip, S-180 ICR mouse, intraperitoneal, daily dose 10 μmole (mg/kg/day given per compound), 7 to 8 injections, read-out: T/C
[4] = ip, 1200 h, S-180 ICR mouse, intraperitoneal, 7 to 8 injections, read-out: Number of mouse survived for 50 days (converted)
[5] = ip, S-180 ICR mouse, intraperitoneal, 7 to 8 injections, read-out: T/C
[6] = Mus musculus, S-180, ip, 1200 h, read-out: Number of mouse survived for 50 days
[7] = Mus musculus, S-180, ip, read-out: T/C

Row | SMILES | IC50 (A549 cancer cells; [1]) | responders at 10 µmol/kg (S-180 sarcoma cells; [2]) | response vs control in vivo at 10 µmol/kg (S-180 sarcoma cells; [3]) | IC50 (HL-60 cells; HL-60 cells, 48 hours, 37° C.) | IC50 (L1210 cells; L1210 cells, 48 hours, 37° C.) | responders at 15 µmol/kg (S-180 sarcoma cells; [4]) | response vs control in vivo at 15 µmol/kg (S-180 sarcoma cells; [5]) | IC50 (A549 cancer cells; A549, 48 h) | responders at 5 µmol/kg (S-180 sarcoma cells; [6]) | response vs control in vivo at 5 µmol/kg (S-180 sarcoma cells; [7]) | IC50 (HL-60 cells; HL-60, 48 h) | IC50 (L1210 cells; L1210, 48 h) | responders at 10 µmol/kg (S-180 sarcoma cells; [6]) | response vs control in vivo at 10 µmol/kg (S-180 sarcoma cells; [7])
1 | CC=CC=CC(=O)OC(CC=C(C)C)C1=CC(=O)c2c(O)ccc(O)c2C1=O (stereo not drawn) [2-[1-(2,4-hexadienoyloxy)-4-methyl-3-pentenyl]-5,8-dihydroxy-1,4-naphthoquinone] | 0.7 µg/mL (≈ 1.83 µM) | 25% | 185% | 0.6 µg/mL (≈ 1.57 µM) | 0.5 µg/mL (≈ 1.31 µM) |  |  |  |  |  |  |  |  | 
2 | CC/C=C/CC(=O)OC(CC=C(C)C)C1=CC(=O)c2c(O)ccc(O)c2C1=O (stereo not drawn) [2-[1-trans-(3-hexenoyl)oxy-4-methyl-3-pentenyl]-5,8-dihydroxy-1,4-naphthoquinone] | 3.3 µg/mL (≈ 8.58 µM) | 25% | 200% | 0.9 µg/mL (≈ 2.34 µM) | 0.3 µg/mL (≈ 0.78 µM) |  |  |  |  |  |  |  |  | 
3 | C=CCCCCCCCCC(=O)OC(CC=C(C)C)C1=CC(=O)c2c(O)ccc(O)c2C1=O (stereo not drawn) [2-(1-undecylenoyloxy-4-methyl-3-pentenyl)-5,8-dihydroxy-1,4-naphthoquinone] | 6.7 µg/mL (≈ 14.7 µM) |  |  | 0.3 µg/mL (≈ 0.66 µM) | 0.01 µg/mL (≈ 0.022 µM) | 0% | 110% |  |  |  |  |  |  | 
4 | CC(C)=CCC(OC(=O)/C=C(C)/C=C/C=C(C)/C=C/C1=C(C)CCCC1(C)C)C1=CC(=O)c2c(O)ccc(O)c2C1=O (stereo not drawn) [2-[1-trans-retinoyloxy)-4-methyl-3-pentenyl]-5,8-dihydroxy-1,4-naphthoquinone] | > 20 µg/mL |  |  | 4.3 µg/mL (≈ 7.53 µM) | 3.1 µg/mL (≈ 5.43 µM) | 0% | 107% |  |  |  |  |  |  | 
5 | CCCCCCCCCC(=O)OC(CC=C(C)C)C1=CC(=O)c2c(O)ccc(O)c2C1=O (stereo not drawn) [2-(1-n-decanoyloxy-4-methyl-3-pentenyl)-5,8-dihydroxy-1,4-naphthoquinone] | 15 µg/mL (≈ 33.9 µM) |  |  | 1.1 µg/mL (≈ 2.49 µM) | 0.7 µg/mL (≈ 1.58 µM) | 0% | 110% |  |  |  |  |  |  | 
6 | CCC(=O)OC(CC=C(C)C)C1=CC(=O)c2c(O)ccc(O)c2C1=O (stereo not drawn) [2-(1-n-propionyloxy-4-methyl-3-pentenyl)-5,8-dihydroxy-1,4-naphthoquinone] |  |  |  |  |  |  |  | 1.9 µg/mL (≈ 5.52 µM) | 0% | 100% | 0.04 µg/mL (≈ 0.116 µM) | 0.03 µg/mL (≈ 0.0871 µM) |  | 
7 | CC(C)=CCC(OC(=O)c1ccccc1)C1=CC(=O)c2c(O)ccc(O)c2C1=O (stereo not drawn) [2-(1-benzoyloxy-4-methyl-3-pentenyl)-5,8-dihydroxy-1,4-naphthoquinone] | 2.1 µg/mL (≈ 5.35 µM) | 0% | 135% | 0.1 µg/mL (≈ 0.255 µM) | 0.1 µg/mL (≈ 0.255 µM) |  |  |  |  |  |  |  |  | 
8 | CCCCCCCCCCCCCCCC(=O)OC(CC=C(C)C)C1=CC(=O)c2c(O)ccc(O)c2C1=O (stereo not drawn) [2-(1-palmityloxy-4-methyl-3-pentenyl)-5,8-dihydroxy-1,4-naphthoquinone] | > 20 µg/mL |  |  | 3 µg/mL (≈ 5.7 µM) | 2.1 µg/mL (≈ 3.99 µM) | 0% | 109% |  |  |  |  |  |  | 
9 | CCCCCCCCCCCCCCCCCC(=O)OC(CC=C(C)C)C1=CC(=O)c2c(O)ccc(O)c2C1=O (stereo not drawn) | > 20 µg/mL |  |  | 10 µg/mL (≈ 18 µM) | 1.1 µg/mL (≈ 1.98 µM) | 0% | 110% |  |  |  |  |  |  | 
10 | CCC/C=C/C(=O)OC(CC=C(C)C)C1=CC(=O)c2c(O)ccc(O)c2C1=O (stereo not drawn) [2-[1-trans-(2-hexenoyl)oxy-4-methyl-3-pentenyl]-5,8-dihydroxy-1,4-naphthoquinone] | 1.6 µg/mL (≈ 4.16 µM) | 12.5% | 160% | 1 µg/mL (≈ 2.6 µM) | 0.5 µg/mL (≈ 1.3 µM) |  |  |  |  |  |  |  |  | 
11 | CCCCCC(=O)OC(CC=C(C)C)C1=CC(=O)c2c(O)ccc(O)c2C1=O (stereo not drawn) [2-(1-n-hexanoyloxy-4-methyl-3-pentenyl)-5,8-dihydroxy-1,4-naphthoquinone] | 2.6 µg/mL (≈ 6.73 µM) | 33.3% | 214% | 0.7 µg/mL (≈ 1.81 µM) | 0.2 µg/mL (≈ 0.518 µM) |  |  |  |  |  |  |  |  | 
12 | CC(C)=CCC(OC(=O)C(C)C)C1=CC(=O)c2c(O)ccc(O)c2C1=O (stereo not drawn) [2-(1-isobutanoyloxy-4-methyl-3-pentenyl)-5,8-dihydroxy-1,4-naphthoquinone] | 1.9 µg/mL (≈ 5.3 µM) | 12.5% | 185% | 0.2 µg/mL (≈ 0.558 µM) | 0.003 µg/mL (≈ 0.00837 µM) |  |  |  |  |  |  |  |  | 
13 | CC/C=C/C(=O)OC(CC=C(C)C)C1=CC(=O)c2c(O)ccc(O)c2C1=O (stereo not drawn) [2-[1-(trans-2-pentenoyloxy)-4-methyl-3-pentenyl]-5,8-dihydroxy-1,4-naphthoquinone] | 1.1 µg/mL (≈ 2.97 µM) |  |  | 0.9 µg/mL (≈ 2.43 µM) | 0.4 µg/mL (≈ 1.08 µM) | 14.3% | 210% |  |  |  |  |  |  | 
14 | CCCCCCCC/C=C\CCCCCCCC(=O)OC(CC=C(C)C)C1=CC(=O)c2c(O)ccc(O)c2C1=O (stereo not drawn) | > 20 µg/mL |  |  | 9.6 µg/mL (≈ 17.4 µM) | 2.4 µg/mL (≈ 4.34 µM) | 0% | 130% |  |  |  |  |  |  | 
15 | CCCCCCCCCCCC(=O)OC(CC=C(C)C)C1=CC(=O)c2c(O)ccc(O)c2C1=O (stereo not drawn) | > 20 µg/mL |  |  | 1 µg/mL (≈ 2.12 µM) | 0.7 µg/mL (≈ 1.49 µM) | 0% | 110% |  |  |  |  |  |  | 
16 | CC(C)=CCC(OC(=O)C(c1ccccc1)c1ccccc1)C1=CC(=O)c2c(O)ccc(O)c2C1=O (stereo not drawn) [2-(1-diphenylacetyloxy-4-methyl-3-pentenyl)-5,8-dihydroxy-1,4-naphthoquinone] | 6.3 µg/mL (≈ 13.1 µM) |  |  | 0.4 µg/mL (≈ 0.829 µM) | 0.2 µg/mL (≈ 0.414 µM) | 25% | 208% |  |  |  |  |  |  | 
17 | CC(C)=CCC(OC(=O)C=C(C)C)C1=CC(=O)c2c(O)ccc(O)c2C1=O (stereo not drawn) [2-[1-(3,3-dimethyl)acryloxy-4-methyl-3-pentenyl]-5,8-dihydroxy-1,4-naphthoquinone] | 1.1 µg/mL (≈ 2.97 µM) |  |  | 0.05 µg/mL (≈ 0.135 µM) | < 0.01 µg/mL |  |  |  |  |  |  |  | 25% | 179%
18 | CC(C)=CCC(OC(=O)C(Cl)(Cl)Cl)C1=CC(=O)c2c(O)ccc(O)c2C1=O (stereo not drawn) [2-(1-trichloroacetyloxy-4-methyl-3-pentenyl)-5,8-dihydroxy-1,4-naphthoquinone] | 2 µg/mL (≈ 4.61 µM) | 0% | 134% | 0.3 µg/mL (≈ 0.692 µM) | 0.01 µg/mL (≈ 0.0231 µM) |  |  |  |  |  |  |  |  | 
19 | CCCCC(=O)OC(CC=C(C)C)C1=CC(=O)c2c(O)ccc(O)c2C1=O (stereo not drawn) [2-(1-n-pentanoyloxy-4-methyl-3-pentenyl)-5,8-dihydroxy-1,4-naphthoquinone] | 2.5 µg/mL (≈ 6.71 µM) | 0% | 165% | 0.6 µg/mL (≈ 1.61 µM) | 0.2 µg/mL (≈ 0.537 µM) |  |  |  |  |  |  |  |  | 
20 | CC(C)=CCC(OC(=O)CCl)C1=CC(=O)c2c(O)ccc(O)c2C1=O (stereo not drawn) [2-(1-monochloroacetyloxy-4-methyl-3-pentenyl)-5,8-dihydroxy-1,4-naphthoquinone] | 4 µg/mL (≈ 11 µM) | 0% | 102% | 0.3 µg/mL (≈ 0.822 µM) | 0.12 µg/mL (≈ 0.329 µM) |  |  |  |  |  |  |  |  | 
21 | CCCCCCCCC(=O)OC(CC=C(C)C)C1=CC(=O)c2c(O)ccc(O)c2C1=O (stereo not drawn) [2-(1-n-nonanoyloxy-4-methyl-3-pentenyl)-5,8-dihydroxy-1,4-naphthoquinone] | 6.9 µg/mL (≈ 16.1 µM) | 0% | 206% | 1 µg/mL (≈ 2.33 µM) | 0.5 µg/mL (≈ 1.17 µM) |  |  |  |  |  |  |  |  | 
